Patent US20220280594A1, “APPLICATION OF POLYPEPTIDE OR DERIVATIVE THEREOF” (CHENGDU HUITAI BIOMEDICINE CO., LTD., priority 2019, published 2022)

Tests used:
Type in all cases: cell-based
[1] = tested on: human lung cancer cells (95D); experiment: scratch assay, migration of 95D cells; conditions: 10 μM, 48 hours, control group 55.3 ± 3.19
Procedure: (§1) In the scratch assay, the cell migration rate was negatively correlated with the inhibitory effect of the drug component on tumor cell migration ability. The cell migration inhibition experiment was described as follows: tumor cells were cultured in vitro, cells in logarithmic growth phase were collected and seeded evenly in a 24-well plate at a density of 1-2×10^5 cells/well; the cells were cultured in a cell incubator until a monolayer was formed; a scratch tool was used to make a “-” (straight) scratch on the monolayer of cells; the cells were washed 1-3 times with PBS, and a medium (with 2% fetal bovine serum) containing specific test components was added to the culture. Experimental grouping: PBS control group; polypeptide or derivative thereof treatment group (N1-N54), 10 μM. Three independent parallel wells were set up in each group, and the cells were cultured continuously in a cell incubator for 48 hours. […] At least 3 representative images for each well were taken. ImageJ software was used to count the migration distance of the cells, and the cell migration rate was calculated as: cell migration rate (%)=(width of original scratch−width of current scratch)/width of original scratch×100.
This example was a scratch assay to evaluate the inhibitory effect of the polypeptide or derivative thereof (N1-N54) on the migration ability of human lung cancer cells (95D). The experimental method was as described in Example 2.

[2] = tested on: human lung squamous carcinoma cells (NCI-H226); experiment: scratch assay, migration of NCI-H226 cells; conditions: NCI-H226, 10 μM, 48 hours; control group 65.31 ± 3.19
Procedure: as §1
This example was a scratch assay to evaluate the inhibitory effect of the polypeptide or derivative thereof (N1-N54) on the migration ability of human lung squamous carcinoma cells (NCI-H226). The experimental method was as described in Example 2.

[3] = tested on: human liver adenocarcinoma cells (SK-HEP-1); experiment: transwell migration assay, SK-HEP-1 cells; conditions: SK-HEP-1 transwell migration, 10 μM, 24 hours; control group 1 782 ± 108, control group 2 768 ± 86
Procedure: The Transwell chamber system was used in the transwell cell migration experiment. The chamber has an upper layer and a lower layer, which are separated by an artificial semipermeable membrane in the middle. Cells that have migrated through the semi-permeable membrane will attach to the lower surface of the semi-permeable membrane. The migration ability is evaluated by counting the number of cells on the lower surface of the semi-permeable membrane. The number of cells that have migrated is negatively correlated with the inhibitory effect of the drug on the migration ability of the tumor cells. Transwell migration assay was performed as follows: tumor cells were cultured in vitro, cells in logarithmic growth phase were collected, and cell suspension was prepared with fresh serum-free medium at a density of 2-3×10^5 cells/mL. Cells were inoculated, 100 μL/well cell suspension (serum-free medium) in the upper chamber and 600 μL/well complete culture medium in the lower chamber. After incubated in 37° C., 5% CO2 incubator for 4-5 hours, serum-free medium (100 μL/well) was added to the control group, and serum-free medium containing polypeptide or derivative thereof (N1-N54) was added to the upper chamber of the treatment group (100 μL/well), the final concentration of the peptide or derivative thereof in the upper chamber was 10 μM. The cells were incubated continuously for 24 hours, and then fixed with methanol and stained with crystal violet. Images were taken under a microscope and the number of migrated cells was counted with ImageJ.
This example was a transwell cell migration experiment to evaluate the inhibitory effect of the polypeptide or derivative thereof (N1-N54) on the migration ability of human liver adenocarcinoma cells (SK-HEP-1). The experimental method was as described in Example 3.

[4] = tested on: human liver adenocarcinoma cells (SK-HEP-1); experiment: transwell invasion assay, SK-HEP-1 cells; conditions: SK-HEP-1 transwell invasion, 10 μM, 24 hours; control group 767 ± 91
From the text: The Transwell chamber system was used in the transwell cell invasion experiment. The chamber has an upper layer and a lower layer, which are separated by an artificial semipermeable membrane in the middle. The upper surface of the semipermeable membrane is coated with a layer of artificial matrigel to simulate extracellular matrix. Cells that have invaded through the matrigel and semi-permeable membrane will attach to the lower surface of the semi-permeable membrane. The invasion ability is evaluated by counting the number of cells on the lower surface of the semi-permeable membrane. The number of cells that have invaded is negatively correlated with the inhibitory effect of the drug on the invasion ability of the tumor cells. Transwell invasion assay was performed as follows: tumor cells were cultured in vitro, cells in logarithmic growth phase were collected, and cell suspension was prepared with fresh serum-free medium at a density of 2-3×10^5 cells/mL. Cells were inoculated, 100 μL/well cell suspension (serum-free medium) in the upper chamber and 600 μL/well complete culture medium in the lower chamber. After incubated in 37° C., 5% CO2 incubator for 4-5 hours, serum-free medium (100 μL/well) was added to the control group, and serum-free medium containing polypeptide or derivative thereof (N1-N54) was added to the upper chamber of the treatment group (100 μL/well), the final concentration of the peptide or derivative thereof in the upper chamber was 10 μM. The cells were incubated continuously for 24 hours, and then fixed with methanol and stained with crystal violet. Images were taken under a microscope and the number of invaded cells was counted with ImageJ.
This example was a transwell cell invasion experiment to evaluate the inhibitory effect of the polypeptide or derivative thereof (N1-N54) on the invasion ability of human liver adenocarcinoma cells (SK-HEP-1). The experimental method was as described in Example 4.

[5] = tested on: human oral epidermoid carcinoma KB cells; experiment: scratch assay, migration of KB cells; conditions: 10 μM, 48 hours, control group 54.03 ± 4.21
Procedure: as §1
This example was a scratch assay to evaluate the inhibitory effect of the polypeptide or derivative thereof (N1-N54) on the migration ability of human oral epidermoid carcinoma cells (KB). The experimental method was as described in Example 2.

[6] = tested on: human pharyngeal squamous-cell carcinoma cells (Fadu); experiment: scratch assay, migration of Fadu cells; conditions: 10 μM, 48 hours, control group 28.76 ± 4.08
Procedure: as §1
This example was a scratch assay to evaluate the inhibitory effect of the polypeptide or derivative thereof (N1-N54) on the migration ability of human pharyngeal squamous-cell carcinoma cells (Fadu). The experimental method was as described in Example 2.

[7] = tested on: human thyroid cancer cells (FRO); experiment: scratch assay, migration of FRO cells; conditions: 10 μM, 48 hours, control group 60.34 ± 8.32
Procedure: as §1
This example was a scratch assay to evaluate the inhibitory effect of the polypeptide or derivative thereof (N1-N54) on the migration ability of human thyroid cancer cells (FRO). The experimental method was as described in Example 2.

[8] = tested on: human prostate cancer cells (22RV1); experiment: scratch assay, migration of 22RV1 cells; conditions: 22RV1, 10 μM, 48 hours; control group 25.41 ± 5.01
Procedure: as §1
This example was a scratch assay to evaluate the inhibitory effect of the polypeptide or derivative thereof (N1-N54) on the migration ability of human prostate cancer cells (22RV1). The experimental method was as described in Example 2.

Row | Substance | Migration rate (%) (mean ± SD, P) [1] | Migration rate (%) (mean ± SD, P) [2] | Number of cells (mean ± SD, P), migrated cells [3] | Number of cells (mean ± SD, P), invaded cells [4] | Migration rate (%) (mean ± SD, P) [5] | Migration rate (%) (mean ± SD, P) [6] | Migration rate (%) (mean ± SD, P) [7] | Migration rate (%) (mean ± SD, P) [8]
1 | N17: SEQ ID NO: 1 with addition of two amino acids to the carboxyl terminal (YRVRFLAKENVTQDAEDNCT) | 18.31 ± 8.26,** % | 43.38 ± 4.83,** % | 50 ± 5,**** | 165 ± 28,**** | 14.35 ± 2.52,** % | 8.78 ± 2.34,*** % | 11.38 ± 2.27,*** % | 4.61 ± 1.64,** %
2 | N18: SEQ ID NO: 1 with addition of one amino acid at the amino terminal and one at the carboxyl terminal (FYRVRFLAKENVTQDAEDNC) | 25.71 ± 4.05,*** % | 48.17 ± 3.85,** % | 96 ± 28,**** | 262 ± 21,**** | 12.67 ± 2.33,*** % | 6.29 ± 2.62,*** % | 22.96 ± 5.05% | 6.75 ± 3.22,** %
3 | N19: SEQ ID NO: 1 with deletion of positions 1-5 and 15-18 and addition of two amino acids at the carboxyl terminal (LAKENVTQDRC) | 42.04 ± 5.90,* % | 16.80 ± 8.02,*** % | 82 ± 6,**** | 348 ± 40,*** | 8.14 ± 2.21,*** % | 17.23 ± 3.53,* % | 25.59 ± 4.08,** % | 5.36 ± 1.6,** %
4 | N20: SEQ ID NO: 1 with addition of one amino acid at the amino terminal and deletion of position 18 (RYRVRFLAKENVTQDAED) | 43.15 ± 5.46,* % | 19.54 ± 6.51,*** % | 299 ± 35,**** | 242 ± 22,**** | 6.92 ± 3.28,*** % | 15.21 ± 4.90,* % | 24.03 ± 8.61,* % | 4.88 ± 1.48,** %
5 | N21: SEQ ID NO: 1 with deletion of positions 1-5 and 15-18 and addition of one amino acid at the amino terminal (SLAKENVTQD) | 40.02 ± 4.20,** % | 13.58 ± 6.67,*** % | 34 ± 7,**** | 356 ± 60,*** | 9.87 ± 2.84,*** % | 16.87 ± 6.77,* % | 30.45 ± 4.94,* % | 12.79 ± 3.06,* %
6 | N22: SEQ ID NO: 1 with substitution A7R, deletion of three amino acids at the amino terminal and of positions 15-18 (RFLRKENVTQD) | 38.35 ± 5.04,** % | 18.69 ± 5.25,*** % | 42 ± 17,**** | 430 ± 51,** | 10.02 ± 2.35,*** % | 15.11 ± 4.99,* % | 42.34 ± 4.98,* % | 6.10 ± 2.72,** %
7 | N23: SEQ ID NO: 1 with substitution A7R, deletion of position 11 and of positions 15-18 (YRVRFLRKENTQDAED) | 30.38 ± 4.68,** % | 13.24 ± 8.19,*** % | 276 ± 24,**** | 456 ± 45,** | 10.57 ± 1.7,*** % | 16.93 ± 3.67,* % | 34.39 ± 4.10,* % | 5.7 ± 3.23,** %
8 | N24: SEQ ID NO: 1 with substitution A7R, deletion of positions 1-2 and of position 18 (VRFLRKENVTQDAED) | 35.78 ± 4.79,** % | 15.74 ± 8.70,*** % | 265 ± 24,**** | 332 ± 30,*** | 24.03 ± 4.21,* % | 14.07 ± 5.12,* % | 16.54 ± 3.19,** % | 8.44 ± 1.63,** %
